Assay results from patent US20180099931A1 (AbbVie S.à.r.l., priority 2016, published 2018).
Where two headings read alike, the source gives them in different places.

Target: T1, F508delCFTR (Homo sapiens, UniProt P13569, DEL508-508)
T1 construct: expressed in transfected cells; host or cells: CFBE41o- human lung-derived epithelial cells (CFBE4lo-F508delCFTR-HRP), doxycycline-inducible
Experiment: Cell Surface Expression-Horse Radish Peroxidase (CSE-HRP) Assay;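 for Maximum % activity (with co-corrector): co-corrector and positive control are both the same reference corrector at 2 µM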;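 for Maximum % activity (without co-corrector): percent of the 2 µM on-plate positive control corrector response above DMSO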
Type: cell-based
Settings: for Emax / Maximum % activity (with co-corrector): maximum at any tested concentration, normalized to on-plate positive control; for Emax: read-out: Maximum % activity (without co-corrector)

[1] = test compound without co-corrector
[2] = test compound without co-corrector, read-out: EC50 (without co-corrector)
[3] = with co-corrector (2 μM of 3-[(2R,4R)-4-({[1-(2,2-difluoro-1,3-benzodioxol-5-yl)cyclopropyl]carbonyl}amino)-7-methoxy-3,4-dihydro-2H-chromen-2-yl]benzoic acid), read-out: EC50 (with co-corrector)
[4] = CSE-HRP, test compound without co-corrector, read-out: EC50 (without co-corrector)
[5] = CSE-HRP, with co-corrector (2 μM of 3-[(2R,4R)-4-({[1-(2,2-difluoro-1,3-benzodioxol-5-yl)cyclopropyl]carbonyl}amino)-7-methoxy-3,4-dihydro-2H-chromen-2-yl]benzoic acid), read-out: EC50 (with co-corrector)
[6] = CSE-HRP, with co-corrector (2 μM)
[7] = with co-corrector (2 μM of 3-[(2R,4R)-4-({[1-(2,2-difluoro-1,3-benzodioxol-5-yl)cyclopropyl]carbonyl}amino)-7-methoxy-3,4-dihydro-2H-chromen-2-yl]benzoic acid)

T1 sequence (P13569 with tags, fused parts or gaps DEL508-508): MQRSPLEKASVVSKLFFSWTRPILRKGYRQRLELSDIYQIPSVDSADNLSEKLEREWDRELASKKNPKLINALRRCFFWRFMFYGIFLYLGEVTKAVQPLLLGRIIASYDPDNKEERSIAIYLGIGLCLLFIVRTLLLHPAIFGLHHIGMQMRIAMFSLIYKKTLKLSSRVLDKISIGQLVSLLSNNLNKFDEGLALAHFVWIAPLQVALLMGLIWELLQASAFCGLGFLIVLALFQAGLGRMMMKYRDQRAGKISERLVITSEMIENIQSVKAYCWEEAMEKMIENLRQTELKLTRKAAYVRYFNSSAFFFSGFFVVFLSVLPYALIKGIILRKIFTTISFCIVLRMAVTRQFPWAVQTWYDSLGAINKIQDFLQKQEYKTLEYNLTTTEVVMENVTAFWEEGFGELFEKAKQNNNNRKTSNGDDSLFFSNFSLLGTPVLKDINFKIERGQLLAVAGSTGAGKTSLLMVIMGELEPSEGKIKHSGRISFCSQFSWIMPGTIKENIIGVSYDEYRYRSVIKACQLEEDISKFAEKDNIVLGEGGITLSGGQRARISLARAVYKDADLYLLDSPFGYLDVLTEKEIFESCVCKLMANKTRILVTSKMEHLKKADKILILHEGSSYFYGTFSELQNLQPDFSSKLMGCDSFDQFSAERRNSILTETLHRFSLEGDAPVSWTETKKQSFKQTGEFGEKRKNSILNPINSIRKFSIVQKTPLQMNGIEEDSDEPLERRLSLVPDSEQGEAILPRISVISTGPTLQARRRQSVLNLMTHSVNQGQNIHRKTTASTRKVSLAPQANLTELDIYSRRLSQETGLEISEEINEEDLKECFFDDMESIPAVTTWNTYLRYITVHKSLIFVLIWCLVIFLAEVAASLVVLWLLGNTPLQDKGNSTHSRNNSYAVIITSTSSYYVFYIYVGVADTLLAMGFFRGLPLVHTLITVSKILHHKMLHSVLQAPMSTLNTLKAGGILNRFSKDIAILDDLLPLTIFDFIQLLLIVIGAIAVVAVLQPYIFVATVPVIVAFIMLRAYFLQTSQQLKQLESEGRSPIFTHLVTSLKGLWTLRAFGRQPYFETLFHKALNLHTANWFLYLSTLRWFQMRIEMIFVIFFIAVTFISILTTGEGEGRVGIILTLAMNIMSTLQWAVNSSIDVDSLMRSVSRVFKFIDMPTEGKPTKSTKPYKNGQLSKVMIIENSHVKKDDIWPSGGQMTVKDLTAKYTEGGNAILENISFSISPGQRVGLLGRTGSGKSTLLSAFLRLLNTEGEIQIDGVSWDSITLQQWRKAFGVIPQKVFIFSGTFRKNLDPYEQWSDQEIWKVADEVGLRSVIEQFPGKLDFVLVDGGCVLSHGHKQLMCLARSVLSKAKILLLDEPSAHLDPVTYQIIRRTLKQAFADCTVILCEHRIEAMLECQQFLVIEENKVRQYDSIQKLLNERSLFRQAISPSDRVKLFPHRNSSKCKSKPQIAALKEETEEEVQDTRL

Emax [1] [%] | EC50 [2] [µM] | EC50 [3] [µM] | Maximum % activity (with co-corrector) (with co-corrector (2 μM)) | EC50 [4] [µM] | EC50 [5] [µM] | Maximum % activity (with co-corrector) [6] | Emax (CSE-HRP, without co-corrector) [%] | Emax (without co-corrector) [%] | Maximum % activity (with co-corrector) [7] | Compound
< 100 | 1 to 10 | 1 to 10 | +++ (≥350) |  |  |  |  |  |  | Cc1cc(C)c(C#N)c(N[C@H]2[C@H](C(C)(C)C)[C@@H](C(=O)O)N(C(=O)C3CCCCC3)[C@H]2c2ccccc2)n1 [III-148]
 |  |  |  | 1 to 10 | 1 to 10 | +++ (≥350) | < 100 |  |  | Cc1cc(C)cc(CN[C@H]2[C@H](C(C)(C)C)[C@@H](C(=O)O)N(C(=O)C3CCCCC3)[C@H]2c2ccccc2)c1 [II-132]
 | 1 to 10 | 1 to 10 | +++ (≥350) |  |  |  |  | 100 to 200 |  | COc1ccc(C2=CCOCC2)cc1CN[C@H]1[C@H](C(C)(C)C)[C@@H](C(=O)O)N(C(=O)C2CCCCC2)[C@H]1c1ccccc1 [Example I-129]
 | 1 to 10 | 1 to 10 | +++ (≥350) |  |  |  |  | > 200 |  | COc1ccc(C(C)(C)C)cc1CN[C@H]1[C@H](C(C)(C)C)[C@@H](C(=O)O)N(C(=O)[C@@H]2CCCCO2)[C@H]1c1cccnc1N(C)C [Example 18, (2S,3S,4S,5S)-3-tert-butyl-4-{[(5-tert-butyl-2-methoxyphenyl)methyl]amino}-5-[2-(dimethylamino)pyridin-3-yl]-1-[(2S)-oxane-2-carbonyl]pyrrolidine-2-carboxylic acid]
< 100 | 1 to 10 | 1 to 10 | ++ (≥150 and <350) |  |  |  |  |  |  | Cc1ccc(CN[C@H]2[C@H](C(C)(C)C)[C@@H](C(=O)O)N(C(=O)C3CCCCC3)[C@H]2c2ccccc2)cc1C [III-134]
 | 1 to 10 | 1 to 10 | +++ (≥350) |  |  |  |  | > 200 |  | COc1ccc(C(C)(C)C(F)(F)F)cc1CN[C@H]1[C@H](C(C)(C)C)[C@@H](C(=O)O)N(C(=O)C2CCCCC2)[C@H]1c1ccccc1 [Example I-213]
< 100 | 1 to 10 | 1 to 10 |  |  |  |  |  |  | ++ (≥150 and <350) | Cc1cc(C(F)(F)F)cc(N[C@@H]2[C@@H](C(C)(C)C)[C@H](C(=O)O)N(C(=O)C3CCCCC3)[C@@H]2c2cccnc2N(C)C)n1 (racemic) [III-46]
100 to 200 | 1 to 10 | 1 to 10 |  |  |  |  |  |  | +++ (≥350) | CC(C)(C)[C@H]1[C@H](NCC2(c3ccc4c(c3)OC(F)(F)O4)CC2)[C@H](c2ccccc2)N(C(=O)C2CCCCC2)[C@@H]1C(=O)O [II-499]
 |  |  |  | 1 to 10 | 1 to 10 | +++ (≥350) | 100 to 200 |  |  | CC(C)(C)[C@H]1[C@H](Nc2cc(C#N)cnc2Cl)[C@H](c2ccccc2)N(C(=O)C2CCCCC2)[C@@H]1C(=O)O [II-145]
100 to 200 | 1 to 10 | 1 to 10 |  |  |  |  |  |  | +++ (≥350) | COc1cc(C(F)(F)F)ccc1CN[C@H]1[C@H](C(C)(C)C)[C@@H](C(=O)O)N(C(=O)[C@@H]2CCCO2)[C@H]1c1cccnc1C1CC1 [II-587]
 | 1 to 10 | 1 to 10 | +++ (≥350) |  |  |  |  | 100 to 200 |  | COc1ccc(C(C)(C)C)cc1CN[C@H]1[C@H](C(C)(C)C)[C@@H](C(=O)O)N(C(=O)[C@H](C)c2ccccc2)[C@H]1c1cccnc1OC [Example I-239]
> 200 | < 1 | < 1 | +++ (≥350) |  |  |  |  |  |  | COc1ccc(C(C)(C)C)cc1CN[C@H]1[C@H](C(C)(C)C)[C@@H](C(=O)O)N(C(=O)C2CCC(C)CC2)[C@H]1c1ccccc1 (some centres unmarked) [III-174]
> 200 | 1 to 10 | < 1 |  |  |  |  |  |  | +++ (≥350) | COc1ccc(C23CC(C2)C3)cc1CN[C@H]1[C@H](C(C)(C)C)[C@@H](C(=O)O)N(C(=O)[C@H]2CCC[C@H](OC)C2)[C@H]1c1ccccc1 [II-516]
< 100 | 1 to 10 | 1 to 10 | ++ (≥150 and <350) |  |  |  |  |  |  | COc1cc(C(F)(F)F)ccc1CN[C@H]1[C@H](C(C)(C)C)[C@@H](C(=O)O)N(C(=O)c2cccnc2)[C@H]1c1ccccc1 [III-163]
 | < 1 | < 1 | +++ (≥350) |  |  |  |  | 100 to 200 |  | COc1ccc(C(C)(C)C)cc1CN[C@H]1[C@H](C(C)(C)C)[C@@H](C(=O)O)N(C(=O)C2Cc3ccccc3O2)[C@H]1c1cccnc1N(C)C (single isomer, unassigned) [Example 36, (2S,3S,4S,5S)-3-tert-butyl-4-{[(5-tert-butyl-2-methoxyphenyl)methyl]amino}-1-[(2S*)-2,3-dihydro-1-benzofuran-2-carbonyl]-5-[2-(dimethylamino)pyridin-3-yl]pyrrolidine-2-carboxylic acid]
< 100 | 1 to 10 | 1 to 10 |  |  |  |  |  |  | +++ (≥350) | COc1ccc(C(F)(F)F)cc1CN[C@@H]1[C@@H](C(C)(C)C)[C@H](C(=O)O)N(C(=O)C2CCCCC2)[C@@H]1c1ccccn1 (racemic) [III-60]
 |  |  |  | 1 to 10 | 1 to 10 | ++ (≥150 and <350) | < 100 |  |  | COc1ncc(C(F)(F)F)cc1N[C@@H]1[C@@H](C(C)(C)OC)[C@H](C(=O)O)N(C(=O)C2CCCCC2)[C@@H]1c1ccccc1 (racemic) [II-89]
 |  |  |  | 1 to 10 | 1 to 10 | +++ (≥350) | 100 to 200 |  |  | COc1cc(C(C)(C)C)ccc1CN[C@H]1[C@H](C(C)(C)C)[C@@H](C(=O)O)N(C(=O)OC(C)C)[C@H]1c1ccccc1OC [II-135]
> 200 | 1 to 10 | 1 to 10 |  |  |  |  |  |  | +++ (≥350) | COc1ncc(-c2cccc(F)c2F)cc1CN[C@H]1[C@H](C(C)(C)C)[C@@H](C(=O)O)N(C(=O)C2CCCCC2)[C@H]1c1ccccc1 [II-346]
 |  |  |  | 1 to 10 | < 1 | +++ (≥350) | > 200 |  |  | COc1ccc(OC(F)(F)F)cc1CN[C@H]1[C@H](C(C)(C)C)[C@@H](C(=O)O)N(C(=O)C2CCCCC2)[C@H]1c1ccccc1 [II-190]
> 200 | 1 to 10 | < 1 |  |  |  |  |  |  | +++ (≥350) | COc1cc(C(F)(F)F)ccc1CN[C@H]1[C@H](C(C)(C)C)[C@@H](C(=O)O)N(C(=O)OC(C)C)[C@H]1c1ccccc1C(C)C [II-561]
 | < 1 | < 1 | +++ (≥350) |  |  |  |  | < 100 |  | COc1ncc(C(F)(F)F)cc1N[C@@H]1[C@@H](C(C)(C)C)[C@H](C(=O)O)N(C(=O)C2CCCCC2)[C@@H]1c1ccccc1 (racemic) [Example I-15]
 | 1 to 10 | 1 to 10 | +++ (≥350) |  |  |  |  | > 200 |  | COc1ncc(C(F)(F)F)cc1CN[C@H]1[C@H](C(C)(C)C)[C@@H](C(=O)O)N(C(=O)OC(C)C)[C@H]1c1cccnc1OC(C)C [Example 79, (2S,3S,4S,5S)-3-tert-butyl-4-({[2-methoxy-5-(trifluoromethyl)pyridin-3-yl]methyl}amino)-1-{[(propan-2-yl)oxy]carbonyl}-5-{2-[(propan-2-yl)oxy]pyridin-3-yl}pyrrolidine-2-carboxylic acid]
